System: human cervical tumor cell line HeLa (ATCC CCL-2)
Assay: SAC-Formation - Nocodazole-Induced Assay
Type: cell-based
Details: Homo sapiens, HeLa, 24 h, HeLa cells, nocodazole 0.1 μg/ml together with test compound, decrease of mitotic cells (phospho-histone H3 Ser10)
Outline: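 Loss of phospho-histone H3 Ser10-positive cells, counted against Hoechst-stained nuclei by high-content imaging, marked mitotic breakthrough. Compounds (0.005–20 μM, 0.5% DMSO) were co-dosed with 0.1 μg/ml nocodazole onto HeLa cells for 24 h at 37 °C. Curves were fitted with a four-parameter Hill equation.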

| Compound | IC50 |
| --- | --- |
| CC(=O)N1CCC(Oc2ccc(NC(=O)c3c(C)nsc3Nc3cnc4ccccc4n3)cn2)CC1 [Example 22, N-{6-[(1-acetylpiperidin-4-yl)oxy]pyridin-3-yl}-3-methyl-5-(quinoxalin-2-ylamino)-1,2-thiazole-4-carboxamide] | 580 nM |
| Cc1nsc(Nc2cnc(C(F)(F)F)cn2)c1C(=O)Nc1ccc(F)c(OC2CCN(CCF)CC2)c1 [Example 266, N-(4-fluoro-3-{[1-(2-fluoroethyl)piperidin-4-yl]oxy}phenyl)-3-methyl-5-{[5-(trifluoromethyl)pyrazin-2-yl]amino}-1,2-thiazole-4-carboxamide] | 150 nM |
| Cc1nsc(Nc2cnc(C(F)(F)F)cn2)c1C(=O)Nc1ccc(C(=O)NC2CN(CC(F)(F)F)C2)cc1 [Example 270, 3-methyl-N-(4-{[1-(2,2,2-trifluoroethyl)azetidin-3-yl]carbamoyl}phenyl)-5-{[5-(trifluoromethyl)pyrazin-2-yl]amino}-1,2-thiazole-4-carboxamide] | 950 nM |
| Cc1nsc(Nc2cnc3ccccc3n2)c1C(=O)Nc1cccc(C(=O)NC(C)C)c1 [Example 253, N-[3-(isopropylcarbamoyl)phenyl]-3-methyl-5-(quinoxalin-2-ylamino)-1,2-thiazole-4-carboxamide] | 830 nM |
| Cc1nsc(Nc2ccc(C#N)cn2)c1C(=O)Nc1cccc(C(=O)NC(C)C)c1 [Example 255, 5-[(5-cyanopyridin-2-yl)amino]-N-[3-(isopropylcarbamoyl)phenyl]-3-methyl-1,2-thiazole-4-carboxamide] | 3700 nM |
| CCN1CCN(C(=O)c2ccc(NC(=O)c3c(C)nsc3Nc3cnc(C(F)(F)F)cn3)cc2)CC1 [Example 261, N-{4-[(4-ethylpiperazin-1-yl)carbonyl]phenyl}-3-methyl-5-{[5-(trifluoromethyl)pyrazin-2-yl]amino}-1,2-thiazole-4-carboxamide] | 1100 nM |
| Cc1nsc(Nc2ccc(C#N)cn2)c1C(=O)Nc1cccc(C(=O)NC2CC2)c1 [Example 250, 5-[(5-cyanopyridin-2-yl)amino]-N-[3-(cyclopropylcarbamoyl)phenyl]-3-methyl-1,2-thiazole-4-carboxamide] | 790 nM |
| Cc1nsc(Nc2cnc3ccccc3n2)c1C(=O)Nc1cccc(NS(=O)(=O)C2CCN(C(=O)OC(C)(C)C)CC2)c1 [Example 258, tert-butyl 4-{[3-({[3-methyl-5-(quinoxalin-2-ylamino)-1,2-thiazol-4-yl]carbonyl}amino)phenyl]sulfamoyl} piperidine-1-carboxylate] | 600 nM |
| Cc1nsc(Nc2cncc(C(F)(F)F)n2)c1C(=O)Nc1ccc(F)c(OC2CCN(CC(F)F)CC2)c1 [Example 268, N-(3-{[1-(2,2-difluoroethyl)piperidin-4-yl]oxy}-4-fluorophenyl)-3-methyl-5-{[6-(trifluoromethyl)pyrazin-2-yl]amino}-1,2-thiazole-4-carboxamide] | 38 nM |
| Cc1nsc(Nc2cncc(C(F)(F)F)n2)c1C(=O)Nc1ccc(F)c(OC2CCN(CCF)CC2)c1 [Example 269, N-(4-fluoro-3-{[1-(2-fluoroethyl)piperidin-4-yl]oxy}phenyl)-3-methyl-5-{[6-(trifluoromethyl)pyrazin-2-yl]amino}-1,2-thiazole-4-carboxamide] | 120 nM |
| Cc1nsc(Nc2cnc(C(F)(F)F)cn2)c1C(=O)Nc1ccc(C(=O)NC2CN(CC(F)F)C2)cc1 [Example 271, N-(4-{[1-(2,2-difluoroethyl)azetidin-3-yl]carbamoyl}phenyl)-3-methyl-5-{[5-(trifluoromethyl)pyrazin-2-yl]amino}-1,2-thiazole-4-carboxamide] | 1100 nM |
| Cc1nsc(Nc2cnc3ccccc3n2)c1C(=O)Nc1cccc(C(=O)NC2CC2)c1 [Example 249, N-[3-(cyclopropylcarbamoyl)phenyl]-3-methyl-5-(quinoxalin-2-ylamino)-1,2-thiazole-4-carboxamide] | 960 nM |
| Cc1nsc(Nc2cnc(C(F)(F)F)cn2)c1C(=O)Nc1ccc(OCCO)nc1 [Example 277, N-[6-(2-hydroxyethoxy)pyridin-3-yl]-3-methyl-5-{[5-(trifluoromethyl)pyrazin-2-yl]amino}-1,2-thiazole-4-carboxamide] | 650 nM |

Continued, values first:

| IC50 | Compound |
| --- | --- |
| 82 nM | Cc1nsc(Nc2cnc(C(F)(F)F)cn2)c1C(=O)Nc1ccc(F)c(OCC2CCN(C(CF)CF)CC2)c1 [Example 312, N-(3-{[1-(1,3-difluoropropan-2-yl)piperidin-4-yl]methoxy}-4-fluorophenyl)-3-methyl-5-{[5-(trifluoromethyl)pyrazin-2-yl]amino}-1,2-thiazole-4-carboxamide] |
| 51 nM | Cc1nsc(Nc2cnc(C(F)(F)F)cn2)c1C(=O)Nc1ccc(F)c(OCCCN(C)CCC(F)(F)F)c1 [Example 303, N-(4-fluoro-3-{3-[methyl(3,3,3-trifluoropropyl)amino]propoxy}phenyl)-3-methyl-5-{[5-(trifluoromethyl)pyrazin-2-yl]amino}-1,2-thiazole-4-carboxamide] |
| 110 nM | Cc1nsc(Nc2cnc(C(F)(F)F)cn2)c1C(=O)Nc1ccc(F)c(OCCCN(C)CC(F)F)c1 [Example 301, N-(3-{3-[(2,2-difluoroethyl)(methyl)amino]propoxy}-4-fluorophenyl)-3-methyl-5-{[5-(trifluoromethyl)pyrazin-2-yl]amino}-1,2-thiazole-4-carboxamide] |
| 24 nM | Cc1nsc(Nc2cnc(C(F)(F)F)cn2)c1C(=O)Nc1ccc(F)c(OCCCNCC(F)(F)F)c1 [Example 306, N-(4-fluoro-3-{3-[(2,2,2-trifluoroethyl)amino]propoxy}phenyl)-3-methyl-5-{[5-(trifluoromethyl)pyrazin-2-yl]amino}-1,2-thiazole-4-carboxamide] |
| 4100 nM | Cc1nsc(Nc2cnc3ccccc3n2)c1C(=O)Nc1cccc(NS(=O)(=O)C2CN(CC(F)F)C2)c1 [Example 286, N-[3-({[1-(2,2-difluoroethyl)azetidin-3-yl]sulfonyl}amino)phenyl]-3-methyl-5-(quinoxalin-2-ylamino)-1,2-thiazole-4-carboxamide] |
| 450 nM | Cc1nsc(Nc2cnc(C(F)(F)F)cn2)c1C(=O)Nc1ccc(OCCCNCCC(F)(F)F)nc1 [Example 294, 3-methyl-5-{[5-(trifluoromethyl)pyrazin-2-yl]amino}-N-(6-{3-[(3,3,3-trifluoropropyl)amino]propoxy}pyridin-3-yl)-1,2-thiazole-4-carboxamide] |
| 55 nM | Cc1nsc(Nc2cnc(C(F)(F)F)cn2)c1C(=O)Nc1ccc(F)c(OCC2CCN(C(CF)CF)C2)c1 (centres unmarked) [Example 320, N-(3-{[1-(1,3-difluoropropan-2-yl)pyrrolidin-3-yl]methoxy}-4-fluorophenyl)-3-methyl-5-{[5-(trifluoromethyl)pyrazin-2-yl]amino}-1,2-thiazole-4-carboxamide] |
| 980 nM | Cc1nsc(Nc2cnc(C(F)(F)F)cn2)c1C(=O)Nc1ccc(OCCCNCC(F)(F)F)nc1 [Example 292, 3-methyl-N-(6-{3-[(2,2,2-trifluoroethyl)amino]propoxy}pyridin-3-yl)-5-{[5-(trifluoromethyl)pyrazin-2-yl]amino}-1,2-thiazole-4-carboxamide] |
| 2200 nM | Cc1nsc(Nc2cnc3ccccc3n2)c1C(=O)Nc1cccc(NS(=O)(=O)C2CN(CC(F)(F)F)C2)c1 [Example 285, 3-methyl-5-(quinoxalin-2-ylamino)-N-[3-({[1-(2,2,2-trifluoroethyl)azetidin-3-yl]sulfonyl}amino)phenyl]-1,2-thiazole-4-carboxamide] |
| 120 nM | Cc1nsc(Nc2cnc(C(F)(F)F)cn2)c1C(=O)Nc1ccc(OCCCO)nc1 [Example 279, N-[6-(3-hydroxypropoxy)pyridin-3-yl]-3-methyl-5-{[5-(trifluoromethyl)pyrazin-2-yl]amino}-1,2-thiazole-4-carboxamide] |
| 53 nM | Cc1nsc(Nc2cnc(C(F)(F)F)cn2)c1C(=O)Nc1ccc(F)c(OC2CCN(CC(F)F)C2)c1 (centres unmarked) [Example 314, N-(3-{[1-(2,2-difluoroethyl)pyrrolidin-3-yl]oxy}-4-fluorophenyl)-3-methyl-5-{[5-(trifluoromethyl)pyrazin-2-yl]amino}-1,2-thiazole-4-carboxamide] |
| 2000 nM | Cc1nsc(Nc2cnc3ccccc3n2)c1C(=O)Nc1cccc(NS(=O)(=O)C2CCN(C(=O)OC(C)(C)C)C2)c1 (centres unmarked) [Example 290, tert-butyl 3-{[3-({[3-methyl-5-(quinoxalin-2-ylamino)-1,2-thiazol-4-yl]carbonyl}amino)phenyl]sulfamoyl} pyrrolidine-1-carboxylate] |
| 70 nM | Cc1nsc(Nc2cnc(C(F)(F)F)cn2)c1C(=O)Nc1ccc(F)c(OCCCN(C)CC(F)(F)F)c1 [Example 302, N-(4-fluoro-3-{3-[methyl(2,2,2-trifluoroethyl)amino]propoxy}phenyl)-3-methyl-5-{[5-(trifluoromethyl)pyrazin-2-yl]amino}-1,2-thiazole-4-carboxamide] |
| 3300 nM | Cc1nsc(Nc2cnc3ccccc3n2)c1C(=O)Nc1cccc(NS(=O)(=O)C2CCN(CCC(F)(F)F)CC2)c1 [Example 283, 3-methyl-5-(quinoxalin-2-ylamino)-N-[3-({[1-(3,3,3-trifluoropropyl)piperidin-4-yl]sulfonyl}amino)phenyl]-1,2-thiazole-4-carboxamide] |
| 130 nM | Cc1nsc(Nc2cnc(C(F)(F)F)cn2)c1C(=O)Nc1ccc(F)c(OCC2CCN(CCF)CC2)c1 [Example 309, N-(4-fluoro-3-{[1-(2-fluoroethyl)piperidin-4-yl]methoxy}phenyl)-3-methyl-5-{[5-(trifluoromethyl)pyrazin-2-yl]amino}-1,2-thiazole-4-carboxamide] |
| 180 nM | Cc1nsc(Nc2cnc(C(F)(F)F)cn2)c1C(=O)Nc1ccc(OC2CCN(CC(F)F)C2)nc1 (centres unmarked) [Example 296, N-(6-{[1-(2,2-difluoroethyl)pyrrolidin-3-yl]oxy}pyridin-3-yl)-3-methyl-5-{[5-(trifluoromethyl)pyrazin-2-yl]amino}-1,2-thiazole-4-carboxamide] |
